Measurements from patent US20120040976A1, “SMALL MOLECULE IMMUNOMODULATORS FOR ALZHEIMER'S DISEASE” (HUMAN BIOMOLECULAR RESEARCH INSTITUTE, priority 2008, published 2012).
Values after ≈ are worked out from the molar mass of the structure shown.

Legend:
[1] = Average solubility; format: physicochemical
[2] = Anti-oxidant activity
[3] = Metabolic stability in human liver microsomes; format: in vitro ADME; conditions: read-out: Half life, t1/2 HLM
[4] = Metabolic stability in human S9 fraction; format: in vitro ADME; conditions: read-out: Half life, t1/2 S9
[5] = Chemical stability (H2O, pH 7.4); format: physicochemical
[6] = system: MGAT3; test: MGAT3 transcription ratio, AD patient / control PBMCs (qPCR); format: cell-based, human; design: key: Dash (−) indicates minimal effect; (+) indicates a ratio of 1.0-1.5; (++) indicates a ratio of 1.5-2.0; (+++ to ++++) indicates a ratio of 2.0 and above; (+++ to ++++) indicates a ratio of 2.0 and above; conditions: Aβ stimulation
Description: (§1) qPCR reactions of cultured monocyte cDNAs. One μL total cellular cDNA per reaction is used in triplicate reactions for each test gene, and for each culture treatment. SYBR-Green reactions were run on a Continuous Fluorescence real-time thermocycler and analyzed. Cycle threshold (Ct) values are recorded for each replicate reaction, and are then averaged and normalized against mean Ct values from one or more control genes. Fold-expression differences relative to untreated cells are determined using the 2^−ΔΔCt method as previously described. Data from the curcumin concentration range are plotted in order to determine EC50 values (concentrations producing one-half maximal stimulant activity), which are used for comparisons of potency between different compounds. Data are also evaluated for each gene with regard to sensitivity, maximally effective concentration of curcuminoid, response to Aβ, and overall magnitude of fold-expression changes.
(§2) MGAT3 and/or TLR transcription were tested by qPCR in human monocyte cells treated with curcuminoids and compared the results to those treated with vehicle (Table 7). As discussed above, activation or up-regulation of macrophage MGAT3 or TLR's results in many functional outcomes, including the enhancement of […] and removal of Aβ, increased apoptosis, secretion of inflammatory cytokines, and other anti-AD antimicrobial activities. […] Thus, the ratio of MGAT3 or TLR transcription upon Aβ stimulation of human monocytes versus vehicle treatment provides an indicator and sensitive method to test the in vitro efficacy of drug candidates. […] The relative biological activity of the curcumin analogs in AD patient and control cells was ascertained in the in vitro Aβ assay described above (see Example 2).

[7] = system: TLR 4; test: TLR 4 transcription ratio, AD patient / control PBMCs (qPCR); format: cell-based, human; conditions: Aβ stimulation
Description: as §1, §2

[8] = system: TLR 3; test: TLR 3 transcription ratio, AD patient / control PBMCs (qPCR); format: cell-based, human; conditions: Aβ stimulation
Description: as §1, §2

[9] = system: TLR 2; test: TLR 2 transcription ratio, AD patient / control PBMCs (qPCR); format: cell-based, human; conditions: Aβ stimulation
Description: as §1, §2

[10] = water (aqueous solution), pH 7.4, read-out: Chemical stability t1/2 pH 7.4 (converted)
[11] = water, H2O, read-out: Chemical stability t1/2 H2O (converted)

SMILES | IC50 [2] [µM] | half-life ([3]; human) [min] | half-life [4] [min] | Relative ratio of MGAT3 transcription in AD patient / control PBMC's [6] | also measured
O=C(/C=C(\O)CCc1ccc(O)cc1)CCc1ccc(O)cc1 [Compound 5, 5-Hydroxy-1,7-bis(4-hydroxyphenyl)hept-4-en-3-one] | > 250 |  |  |  | Avg. Solubility [1]: insol
O=C1/C(=C(O)/C=C/c2ccc(O)cc2)CCC/C1=C\c1ccc(O)cc1 [Compound 6, 2-(4-Hydroxybenzylidene)-6-(3-(4-hydroxyphenyl)acryloyl)cyclohexanone] | > 250 | 60.6 | 35.2 | +++ ((+++ to ++++) indicates a ratio of 2.0 and above) | half-life [5, 10]: 436 min; half-life [5, 11]: 244 min
CC/C(C(=O)/C=C/c1ccc(N(C)C)cc1)=C(O)\C=C\c1ccc(N(C)C)cc1 [Compound 9, 1,7-bis(4-Dimethylaminophenyl)-4-ethyl-hepta-1,6-diene-3,5-dione] | 55.3 |  |  |  | 
COc1ccc(F)cc1/C=C/C(O)=C1\CCC/C(=C\c2cc(F)ccc2OC)C1=O [Compound 11] | > 250 |  |  | + ((+) indicates a ratio of 1.0-1.5) | 
CC/C(C(=O)/C=C/c1ccc(N(C)C)cc1OC)=C(O)\C=C\c1ccc(N(C)C)cc1OC [Compound 13, 1,7-Bis(4-(dimethylamino)-2-methoxyphenyl)-4-ethyl-hepta-1,6-diene-3,5-dione] | 67.4 |  |  |  | 
O=C1C(=Cc2ccc(O)cc2)COCC1=Cc1ccc(O)cc1 [Compound 15, 3,5-bis(4-Hydroxybenzylidene)dihydro-2H-pyran-4(3H)-one] | > 250 |  |  |  | 
COc1ccc(/C=C/C(=O)/C=C(O)/C=C/c2ccc(OC)cc2)cc1 [Compound 16, 5-Hydroxy-1,7-bis-(4-methoxy-phenyl)-hepta-1,4,6-trien-3-one] |  | 9 | 10.9 | − | 
CC(=O)Oc1ccc(/C=C/C(=O)/C=C(O)/C=C/c2ccc(OC(C)=O)cc2)cc1 [Compound 17, Acetic acid 4-[7-(4-acetoxy-phenyl)-5-hydroxy-3-oxo-hepta-1,4,6-trienyl]-phenyl ester] |  |  |  | − | 
CC(C)(C)C(=O)Oc1ccc(/C=C/C(=O)/C=C(O)/C=C/c2ccc(OC(=O)C(C)(C)C)cc2)cc1 [Compound 18, 2,2-Dimethyl-propionic acid 4-{7-[4-(2,2-dimethyl-propionyloxy)-phenyl]-3,5-dioxo-hepta-1,6-dienyl}-phenyl ester] |  |  |  | − | 
O=C(/C=C(O)/C=C/c1cccc(O)c1)/C=C/c1cccc(O)c1 [Compound 19, 5-Hydroxy-1,7-bis-(3-hydroxyphenyl)-hepta-1,4,6-trien-3-one] |  | 13.3 | 6.6 | + ((+) indicates a ratio of 1.0-1.5) | half-life [5, 10]: 66.2 min; half-life [5, 11]: 22.8 min
CN(C)c1ccc(/C=C/C(=O)/C=C(O)/C=C/c2ccc(N(C)C)cc2)cc1 [Compound 20, 1,7-bis-(4-Dimethylaminophenyl)-5-hydroxy-hepta-1,4,6-trien-3-one] |  | 41.5 | 22.7 | ++++ ((+++ to ++++) indicates a ratio of 2.0 and above) | solubility [1]: 0.23 µg/mL (≈ 0.635 µM); Chemical stability H2O (stable/unstable) ([5]; H2O): stable (stability half-lives greater than 5 hours); Chemical stability pH 7.4 (stable/unstable) ([5]; pH 7.4): stable (stability half-lives greater than 5 hours)
COc1ccc(/C=C/C(=O)/C=C(O)/C=C/c2ccc(OC)c(O)c2)cc1O [Compound 21, 5-Hydroxy-1,7-bis-(3-hydroxy-4-methoxyphenyl)-hepta-1,4,6-trien-3-one] |  | 5 | 6.6 | + ((+) indicates a ratio of 1.0-1.5) | 
COc1cc(O)ccc1/C=C/C(=O)/C=C(O)/C=C/c1ccc(O)cc1OC [Compound 22, 5-Hydroxy-1,7-bis-(4-hydroxy-2-methoxyphenyl)-hepta-1,4,6-trien-3-one] |  | 31.5 | 2.4 | ++ ((++) indicates a ratio of 1.5-2.0) | 
O=C(/C=C(O)/C=C/c1ccc(O)c(Cl)c1)/C=C/c1ccc(O)c(Cl)c1 [Compound 24, 1,7-bis-(3-Chloro-4-hydroxyphenyl)-5-Hydroxy-hepta-1,4,6-trien-3-one] |  |  |  | − | 
COc1ccccc1/C=C/C(=O)/C=C(O)/C=C/c1ccccc1OC [Compound 25, 5-Hydroxy-1,7-bis-(2-methoxyphenyl)-hepta-1,4,6-trien-3-one] |  | 72.8 | 10.9 | ++++ ((+++ to ++++) indicates a ratio of 2.0 and above) | Relative ratio of TLR 4 transcription in AD patient / control PBMC's [7]: TLR 4 + ((+) indicates a ratio of 1.0-1.5); Relative ratio of TLR 3 transcription in AD patient / control PBMC's [8]: TLR 3 ++ ((++) indicates a ratio of 1.5-2.0); Relative ratio of TLR 2 transcription in AD patient / control PBMC's [9]: TLR 2 +++ ((+++ to ++++) indicates a ratio of 2.0 and above)
O=C(/C=C(O)/C=C/c1ccccc1)/C=C/c1ccccc1 [Compound 27, 5-Hydroxy-1,7-diphenylhepta-1,4,6-trien-3-one] |  |  |  | + ((+) indicates a ratio of 1.0-1.5) | 
Cc1ccc(/C=C/C(=O)/C=C(O)/C=C/c2ccc(C)cc2)cc1 [Compound 28, 5-Hydroxy-1,7-ditolylhepta-1,4,6-trien-3-one] |  |  |  | ++ ((++) indicates a ratio of 1.5-2.0) | 
CSc1ccc(/C=C/C(=O)/C=C(O)/C=C/c2ccc(SC)cc2)cc1 [Compound 29, 1,7-bis(4-Methylthiophenyl)-5-hydroxyhepta-1,4,6-trien-3-one] |  | 97.1 | 75.4 | ++++ ((+++ to ++++) indicates a ratio of 2.0 and above) | 
CC(C)(C)c1ccc(/C=C/C(=O)/C=C(O)/C=C/c2ccc(C(C)(C)C)cc2)cc1 [Compound 30, 1,7-bis(4-tert-Butylphenyl)-5-hydroxyhepta-1,4,6-trien-3-one] | > 250 |  |  | + ((+) indicates a ratio of 1.0-1.5) | Relative ratio of TLR 4 transcription in AD patient / control PBMC's [7]: TLR 4 + ((+) indicates a ratio of 1.0-1.5); Relative ratio of TLR 3 transcription in AD patient / control PBMC's [8]: TLR 3 ++ ((++) indicates a ratio of 1.5-2.0); Relative ratio of TLR 2 transcription in AD patient / control PBMC's [9]: TLR 2 + ((+) indicates a ratio of 1.0-1.5)
COc1ccc(F)cc1/C=C/C(O)=C/C(=O)/C=C/c1ccc(N(C)C)cc1 [Compound 31] |  |  |  | ++ ((++) indicates a ratio of 1.5-2.0) | Relative ratio of TLR 4 transcription in AD patient / control PBMC's [7]: TLR 4 ++ ((++) indicates a ratio of 1.5-2.0); Relative ratio of TLR 3 transcription in AD patient / control PBMC's [8]: TLR 3 ++ ((++) indicates a ratio of 1.5-2.0); Relative ratio of TLR 2 transcription in AD patient / control PBMC's [9]: TLR 2 ++ ((++) indicates a ratio of 1.5-2.0)
CC(C)C(N)C(=O)Oc1ccc(/C=C/C(=O)C2CCC/C(=C\c3ccc(OC(=O)C(N)C(C)C)cc3)C2=O)cc1 (centres unmarked) [Compound 37] | > 250 |  | 33.2 | ++ ((++) indicates a ratio of 1.5-2.0) | half-life ([3]; value given in h): > 60 min; half-life [5, 10]: < 16 min; half-life [5, 11]: 95.9 min
NCCCCC(N)C(=O)Oc1ccc(/C=C/C(=O)C2CCC/C(=C\c3ccc(OC(=O)C(N)CCCCN)cc3)C2=O)cc1 (centres unmarked) [Compound 38] | > 250 |  | 33.6 | + ((+) indicates a ratio of 1.0-1.5) | half-life ([3]; value given in h): > 60 min; Chemical stability H2O (stable/unstable) ([5]; H2O): unstable (stability half-lives less than 5 minutes); Chemical stability pH 7.4 (stable/unstable) ([5]; pH 7.4): unstable (stability half-lives less than 5 minutes)
